This note sets out measurements from patent publication US20230233569A1 (Revolution Medicines, Inc., priority 2020, published 2023).

Experiment [1] deals with 4EBP1 (Thr37/46) phosphorylation (mTORC1) in MDA-MB-468 cells. The experiment can be described thus: Cell based AlphaLISA assay, mTOR kinase cellular assay: inhibition of p-4E-BP1 (T37/46) in MDA-MB-468 cells. The following applies: Homo sapiens, read-out: pIC50 for Inhibition of mTORC1 and mTORC2 Substarte Phosphorylation p-4E-BP1-(T37/46) (converted). The procedure:
(§1) Cell Based AlphaLISA Assays for Determining IC50 For Inhibition of P-Akt (S473), P-4E-BP1 (T37/46), and P-P70S6K (T389) in MDA-MB-468 Cells
(§2) mTOR Kinase Cellular Assay
(§3) To measure functional activity of mTORC1 and mTORC2 in cells the phosphorylation of 4EBP1 (Thr37/46) and P70S6K (Thr389), and AKT1/2/3 (Ser473) was monitored using AlphaLisa SureFire Ultra Kits (Perkin Elmer). MDA-MB-468 cells (ATCC® HTB-132) were cultured in 96-well tissue culture plates and treated with compounds in the disclosure at concentrations varying from 0.017-1,000 nM for two to four hours at 37° C. Incubations were terminated by removal of the assay buffer and addition of lysis buffer provided with the assay kit. Samples were processed according to the manufacturer's instructions. The Alpha signal from the respective phosphoproteins was measured in duplicate using a microplate reader (Envision, Perkin-Elmer or Spectramax M5, Molecular Devices). Inhibitor concentration response curves were analyzed using normalized IC50 regression curve fitting with control based normalization.

In experiment [2] the test system is AKT1/2/3 (Ser473) phosphorylation (mTORC2) in MDA-MB-468 cells. As to the kind of experiment: Cell based AlphaLISA assay, mTOR kinase cellular assay: inhibition of p-Akt (S473) in MDA-MB-468 cells. Conditions: Homo sapiens, read-out: pIC50 for Inhibition of mTORC1 and mTORC2 Substarte Phosphorylation p-AKT1/2/3-(S473) (converted). The procedure: as §1, §2, §3

The target in a further experiment is KRAS G12S (Homo sapiens, UniProt P01116+P62937, G12S). The experiment can be described thus: Ras-Raf disruption / FRET / MOA assay (BRAF RBD). The format is biochemical. The following applies: with Cyclophilin A. The method, boiled down:
(§4)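 Compound-induced Ras–Cyclophilin A ternary complex disrupting BRAF RBD binding, read as IC50 from reduced TR-FRET ratio relative to DMSO. Final: Ras-GMPPNP 12.5 nM, BRAF RBD 50 nM, Cyclophilin A 25 μM, top compound 30 μM (3-fold, 10 points); 3 h at 25 °C, then 1.5 h with detection antibodies.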

Another experiment addresses KRAS Q61H (Homo sapiens, UniProt P01116+P62937, Q61H). As to the kind of experiment: Ras-Raf disruption / FRET / MOA assay (BRAF RBD). The format is biochemical. Conditions: KRAS Q61H; read-out: KRAS Q61H FRET data IC50. The procedure, abridged:
as §4

For a further experiment, the target named is NRAS Q61R (Homo sapiens, UniProt P01111+P62937, Q61R). As to the kind of experiment: Ras-Raf disruption / FRET / MOA assay (BRAF RBD). Conditions: NRAS Q61R; read-out: NRAS Q61R FRET data IC50. The format is biochemical. The procedure, abridged:
as §4

In a further experiment the target is KRAS G12D (Homo sapiens, UniProt P01116+P62937, G12D). The experiment can be described thus: Ras-Raf disruption / FRET / MOA assay (BRAF RBD). The format is biochemical. Conditions: with Cyclophilin A. The method, boiled down:
as §4

The target of the next experiment is KRAS G13D (Homo sapiens, UniProt P01116+P62937, G13D). The experiment can be described thus: Ras-Raf disruption / FRET / MOA assay (BRAF RBD). The format is biochemical. Conditions: with Cyclophilin A. The method, boiled down:
as §4

The target of a further experiment is NRAS G12C (Homo sapiens, UniProt P01111+P62937, G12C). The experiment can be described thus: Ras-Raf disruption / FRET / MOA assay (BRAF RBD). The format is biochemical. The method, boiled down:
as §4

Another experiment has as its target KRAS G12V (Homo sapiens, UniProt P01116+P62937, G12V). The experiment can be described thus: Ras-Raf disruption / FRET / MOA assay (BRAF RBD). The format is biochemical. The following applies: with Cyclophilin A. The procedure, abridged: as §4
For the next experiment, the target named is NRAS WT (Homo sapiens, UniProt P01111+P62937). As to the kind of experiment: Ras-Raf disruption / FRET / MOA assay (BRAF RBD). The format is biochemical. The following applies: NRAS WT; read-out: NRAS WT FRET data IC50. The method, boiled down:
as §4

In a further experiment the target is KRAS WT (Homo sapiens, UniProt P01116+P62937). As to the kind of experiment: Ras-Raf disruption / FRET / MOA assay (BRAF RBD). The following applies: with Cyclophilin A. The format is biochemical. The method, boiled down: as §4
Another experiment concerns the target KRAS G13C (Homo sapiens, UniProt P01116+P62937, G13C). As to the kind of experiment: Ras-Raf disruption / FRET / MOA assay (BRAF RBD). The format is biochemical. The following applies: with Cyclophilin A. The method, boiled down: as §4
In the next experiment the target is NRAS Q61K (Homo sapiens, UniProt P01111+P62937, Q61K). As to the kind of experiment: Ras-Raf disruption / FRET / MOA assay (BRAF RBD). The format is biochemical. The following applies: NRAS Q61K; read-out: NRAS Q61K FRET data IC50. The procedure, abridged:
as §4

The next experiment concerns AsPC-1 (K-Ras G12D). As to the kind of experiment: CellTiter-Glo cell viability assay. The format is cell-based. The following applies: Homo sapiens, ASPC1, 120 h. The procedure, abridged: (§5)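 Direct compound addition to plated cells; 5-day exposure; ~30 min RT equilibration; CellTiter-Glo luminescence. Normalization: (sample/avg DMSO)*100; 4-parameter logistic curve fit.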

A further experiment concerns NCI-H358 (K-Ras G12C). The experiment can be described thus: CellTiter-Glo cell viability assay. Conditions: Homo sapiens, NCI-H358, 120 h. The format is cell-based. The method, boiled down:
as §5

A further experiment concerns the target KRAS G12C (Homo sapiens, UniProt P01116+P62937, G12C). As to the kind of experiment: Ras-Raf disruption / FRET / MOA assay (BRAF RBD). The format is biochemical. Conditions: with Cyclophilin A. The procedure, abridged:
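TR-FRET read-out after 1.5 h with anti-His Eu-W1024 (10 nM) and anti-GST APC (50 nM), following 3 h at 25 °C of compound (top 30 μM, 3-fold, 10 points) with 25 μM Cyclophilin A, 12.5 nM GMPPNP-loaded K-Ras G12C and 50 nM BRAF RBD; IC50 reported.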

Each structure is given as a SMILES string. Like-named read-outs stand apart in the source and are kept apart here.

Sequence of NRAS G12C (P01111 whole entry G12C): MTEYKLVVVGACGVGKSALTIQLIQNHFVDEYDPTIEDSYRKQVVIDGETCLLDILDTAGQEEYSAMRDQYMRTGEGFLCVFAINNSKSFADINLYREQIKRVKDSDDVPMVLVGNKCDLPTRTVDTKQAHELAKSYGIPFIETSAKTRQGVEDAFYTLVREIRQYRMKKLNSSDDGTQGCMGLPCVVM
Sequence of NRAS G12C (P62937 whole entry): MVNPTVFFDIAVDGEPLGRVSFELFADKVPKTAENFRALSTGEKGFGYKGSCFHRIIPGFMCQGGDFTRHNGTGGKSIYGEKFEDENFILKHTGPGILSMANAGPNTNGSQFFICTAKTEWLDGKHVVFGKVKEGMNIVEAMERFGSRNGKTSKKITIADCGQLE
Sequence of KRAS WT (P01116 1-169 isoform P01116-2 limits assumed): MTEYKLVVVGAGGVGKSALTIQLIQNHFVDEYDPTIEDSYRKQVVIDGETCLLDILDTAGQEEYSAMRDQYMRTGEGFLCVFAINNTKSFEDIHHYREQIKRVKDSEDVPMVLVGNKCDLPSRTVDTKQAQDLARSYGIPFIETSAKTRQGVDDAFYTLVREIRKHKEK
Sequence of KRAS WT (P62937 whole entry): as the sequence (P62937 whole entry) above
Sequence of KRAS G12C (P01116 1-169 isoform P01116-2 G12C limits assumed): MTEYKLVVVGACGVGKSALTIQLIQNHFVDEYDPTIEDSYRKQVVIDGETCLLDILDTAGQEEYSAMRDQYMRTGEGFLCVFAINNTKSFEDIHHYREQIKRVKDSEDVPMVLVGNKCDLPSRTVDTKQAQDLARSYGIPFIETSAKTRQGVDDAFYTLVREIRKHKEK
Sequence of KRAS G12C (P62937 whole entry): as the sequence (P62937 whole entry) above
Sequence of KRAS G12D (P01116 1-169 isoform P01116-2 G12D limits assumed): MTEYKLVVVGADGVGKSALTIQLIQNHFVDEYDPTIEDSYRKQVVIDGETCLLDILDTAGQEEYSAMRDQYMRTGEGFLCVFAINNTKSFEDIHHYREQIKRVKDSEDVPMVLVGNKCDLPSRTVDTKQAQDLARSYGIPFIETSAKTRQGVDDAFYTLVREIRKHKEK
Sequence of KRAS G12D (P62937 whole entry): as the sequence (P62937 whole entry) above
Sequence of KRAS G12S (P01116 1-169 isoform P01116-2 G12S limits assumed): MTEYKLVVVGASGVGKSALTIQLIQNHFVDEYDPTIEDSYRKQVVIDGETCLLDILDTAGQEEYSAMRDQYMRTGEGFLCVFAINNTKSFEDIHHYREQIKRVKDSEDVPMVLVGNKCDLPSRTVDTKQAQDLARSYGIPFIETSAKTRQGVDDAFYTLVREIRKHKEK
Sequence of KRAS G12S (P62937 whole entry): as the sequence (P62937 whole entry) above
Sequence of KRAS G12V (P01116 1-169 isoform P01116-2 G12V limits assumed): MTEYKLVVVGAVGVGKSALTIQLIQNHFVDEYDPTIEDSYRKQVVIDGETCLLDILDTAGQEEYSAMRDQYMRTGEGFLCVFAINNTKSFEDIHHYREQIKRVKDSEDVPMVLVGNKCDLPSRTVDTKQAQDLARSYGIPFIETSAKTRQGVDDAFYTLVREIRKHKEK
Sequence of KRAS G12V (P62937 whole entry): as the sequence (P62937 whole entry) above
Sequence of KRAS G13D (P01116 1-169 isoform P01116-2 G13D limits assumed): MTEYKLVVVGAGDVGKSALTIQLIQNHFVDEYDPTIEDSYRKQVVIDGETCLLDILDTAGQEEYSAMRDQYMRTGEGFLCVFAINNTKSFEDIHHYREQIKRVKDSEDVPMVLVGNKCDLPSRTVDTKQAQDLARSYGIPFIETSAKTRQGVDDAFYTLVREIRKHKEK
Sequence of KRAS G13D (P62937 whole entry): as the sequence (P62937 whole entry) above
Sequence of KRAS G13C (P01116 1-169 isoform P01116-2 G13C limits assumed): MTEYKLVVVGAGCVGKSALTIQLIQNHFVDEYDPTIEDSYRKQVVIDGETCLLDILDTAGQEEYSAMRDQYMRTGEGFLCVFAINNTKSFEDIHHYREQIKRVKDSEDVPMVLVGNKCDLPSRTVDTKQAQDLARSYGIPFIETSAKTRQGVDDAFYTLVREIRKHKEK
Sequence of KRAS G13C (P62937 whole entry): as the sequence (P62937 whole entry) above
Sequence of NRAS Q61K (P01111 whole entry Q61K): as the sequence (P01111 whole entry G12C) above, with C12G, Q61K counted along it
Sequence of NRAS Q61K (P62937 whole entry): as the sequence (P62937 whole entry) above
Sequence of NRAS WT (P01111 whole entry): as the sequence (P01111 whole entry G12C) above, with C12G counted along it
Sequence of NRAS WT (P62937 whole entry): as the sequence (P62937 whole entry) above
Sequence of NRAS Q61R (P01111 whole entry Q61R): as the sequence (P01111 whole entry G12C) above, with C12G, Q61R counted along it
Sequence of NRAS Q61R (P62937 whole entry): as the sequence (P62937 whole entry) above
Sequence of KRAS Q61H (P01116 1-169 isoform P01116-2 Q61H limits assumed): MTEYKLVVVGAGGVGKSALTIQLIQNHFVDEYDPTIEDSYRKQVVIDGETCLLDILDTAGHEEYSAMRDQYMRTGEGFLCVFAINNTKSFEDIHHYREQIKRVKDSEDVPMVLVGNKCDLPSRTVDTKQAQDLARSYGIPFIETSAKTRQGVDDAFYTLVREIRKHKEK
Sequence of KRAS Q61H (P62937 whole entry): as the sequence (P62937 whole entry) above

In the case of `CO[C@H]1C[C@@H]2CC[C@@H](C)[C@@](O)(O2)C(=O)C(=O)N2CCCC[C@H]2C(=O)O[C@H]([C@H](C)C[C@@H]2CC[C@@H](OC(=O)NCc3cnc(N4CCN(C(=O)CCOCCN5CCN(c6ncc(C(=O)N7CCc8cc(Cn9nc(-c%10cnc%11[nH]ccc%11c%10)c%10c(N)ncnc%109)ccc8C7)cn6)CC5)[C@@H](C(=O)O)C4)nc3)[C@H](OC)C2)CC(=O)[C@H](C)/C=C(\C)[C@@H](O)[C@@H](OC)C(=O)[C@H](C)C[C@H](C)/C=C/C=C/C=C/1C` [Example 132], the IC50 in [1] is at most 3.16 nM; in experiment [2], 3.16 to 31.6 nM.
For `CO[C@H]1C[C@@H]2CC[C@@H](C)[C@@](O)(O2)C(=O)C(=O)N2CCCC[C@H]2C(=O)O[C@H]([C@H](C)C[C@@H]2CC[C@@H](OC(=O)NCc3cnc(N4CCN(c5ncc(C(=O)N(C)CCOCCOCCOCCOCCC(=O)N6CCc7cc(Cn8nc(-c9ccc%10oc(N)nc%10c9)c9c(N)ncnc98)ccc7C6)c(N)n5)CC4)nc3)[C@H](OC)C2)C[C@@H](OC)[C@H](C)/C=C(\C)[C@@H](O)[C@@H](OC)C(=O)[C@H](C)C[C@H](C)/C=C/C=C/C=C/1C` [Example 107], the IC50 in experiment [1] and in [2] was above 1000 nM throughout.
Take `CCn1c(-c2cccnc2[C@H](C)OC)c2c3cc(ccc31)-c1cc(cc(C(F)F)c1)C[C@H](NC(=O)[C@H](C1CCCC1)N1CC[C@]3(CCN(C(=O)[C@@H]4N[C@@H]4C4CC4)C3)C1)C(=O)N1CCC[C@H](N1)C(=O)OCC(C)(C)C2` [Example 318]: the IC50 at KRAS G12S (Ras-Raf disruption, read-out: KRAS G12S FRET data IC50) was in the range of 1000 to 10000 nM; at KRAS Q61H it was 100 to 1000 nM; at NRAS Q61R, 1000 to 10000 nM; at KRAS G12D (Ras-Raf disruption, read-out: KRAS G12D FRET data IC50) it was 1000 to 10000 nM; on KRAS G13D (Ras-Raf disruption, read-out: KRAS G13D FRET data IC50), 1000 to 10000 nM; at NRAS G12C (NRAS G12C, read-out: NRAS G12C FRET data IC50), 1000 to 10000 nM. The IC50 at KRAS G12V (Ras-Raf disruption, read-out: KRAS G12V FRET data IC50) lay within 1000 to 10000 nM; on NRAS WT, 1000 to 10000 nM; on KRAS WT (Ras-Raf disruption, read-out: KRAS WT FRET data IC50), 100 to 1000 nM; on KRAS G13C (Ras-Raf disruption, read-out: KRAS G13C FRET data IC50), 100 to 1000 nM; at NRAS Q61K, 1000 to 10000 nM; with AsPC-1 (K-Ras G12D) (K-Ras G12D, 5-day treatment, read-out: AsPC-1 Cell Viability assay data IC50), 100 to 1000 nM. The IC50 in the experiment on NCI-H358 (K-Ras G12C) (K-Ras G12C, 5-day treatment, read-out: H358 Cell Viability assay data IC50) was 100 to 1000 nM; on KRAS G12C (Ras-Raf disruption, read-out: KRAS G12C FRET data IC50), 100 to 1000 nM.
As to `CO[C@H]1C[C@@H]2CC[C@@H](C)[C@@](O)(O2)C(=O)C(=O)N2CCCC[C@H]2C(=O)O[C@H]([C@H](C)C[C@@H]2CC[C@@H](OC(=O)NCc3cnc(N4CCN(c5ncc(C(=O)NCCOCCOCCOCCOCCC(=O)N6CCc7cc(Cn8nc(-c9ccc%10oc(N)nc%10c9)c9c(N)ncnc98)ccc7C6)c(N)n5)CC4)nc3)[C@H](OC)C2)C[C@@H](OC)[C@H](C)/C=C(\C)[C@@H](O)[C@@H](OC)C(=O)[C@H](C)C[C@H](C)/C=C/C=C/C=C/1C` [Example 106], the figures for the IC50 in [1] and in experiment [2] were 3.16 to 31.6 nM and above 1000 nM, respectively.
Regarding `CCn1c(-c2cccnc2[C@H](C)OC)c2c3cc(ccc31)-c1cc(O)cc(c1)C[C@H](NC(=O)[C@H](C(C)C)N(C)C(=O)CN(C)C(=O)[C@H]1CN1CCOC)C(=O)N1CCC[C@H](N1)C(=O)OCC(C)(C)C2` (stereo partly drawn) [Example 159], the IC50 against KRAS G12S (KRAS G12S FRET data IC50, Ras-Raf disruption) was 10 to 100 nM; on KRAS G12D (KRAS G12D FRET data IC50, Ras-Raf disruption) it was 100 to 1000 nM; against KRAS G13D (KRAS G13D FRET data IC50, Ras-Raf disruption), 100 to 1000 nM; against NRAS G12C (NRAS G12C FRET data IC50, NRAS G12C), below 10 nM; at KRAS G12V (KRAS G12V FRET data IC50, Ras-Raf disruption) it was 10 to 100 nM; at KRAS WT (KRAS WT FRET data IC50, Ras-Raf disruption) it was 10 to 100 nM. The IC50 is 10 to 100 nM on KRAS G13C (KRAS G13C FRET data IC50, Ras-Raf disruption); 100 to 1000 nM in the experiment on AsPC-1 (K-Ras G12D) (read-out: AsPC-1 Cell Viability assay data IC50, K-Ras G12D, 5-day treatment); below 10 nM in the experiment on NCI-H358 (K-Ras G12C) (read-out: H358 Cell Viability assay data IC50, K-Ras G12C, 5-day treatment); 10 to 100 nM against KRAS G12C (KRAS G12C FRET data IC50, Ras-Raf disruption).
